The text below walks through data of patent US9834549B2, “3,3-disubstituted-(8-aza-bicyclo[3.2.1]OCT-8-yl)-[5-(1H-pyrazol-4-yl)-thiophen-3-yl]-methanones as inhibitors of 11 (β)-HSD1” (The University Of Edinburgh, priority 2010, dated 2017).

Structures are written as SMILES.

Data set [1] is described as follows: In vitro human liver microsomal stability assay. The settings on record: human liver microsomes. The class given is in vitro ADME. The method, then: To predict in vivo metabolism of compounds, the stability of compounds incubated with human liver microsomes in vitro was determined. Human liver microsome preparations were stored at −80° C. and thawed on ice prior to use. The thawed microsomes were diluted to a concentration of 2 mg/mL in 50 mM sodium phosphate, pH 7.4. Reference and test compounds were prepared as 10 mM stocks in 100% DMSO and diluted to 1 mM in acetonitrile before use. Each compound was tested in triplicate as follows:
4 μL of test or reference compound was added to a well of a 24-well microplate and 0.5 mL of 4 mM NADPH added. The plate was then transferred to a shaker for 10 minutes at room temperature. 30 μL of the compound/NADPH solution was transferred to the well of a 96-well microplate and incubated at 37° C. for 5 minutes. 30 μL of human liver microsomes (pre-incubated at 37° C. for 5 minutes) was added to the well containing the compound/NADPH solution and the plate incubated for the selected period of time (typically 0 or 30 minutes). The reaction was stopped by adding 60 μL of ice cold […] trichloroacetic acid. The plate was centrifuged at 1000 rpm for 5 minutes at room temperature and the supernatant transferred to the well of a new 96-well V-bottomed microplate for mass spectrometric analysis.
Samples were analyzed by TSQ Quantum Discovery Tandem Mass Spectrometer and Surveyor Liquid Chromatogram (Thermo, Hemel-Hempstead, UK). 10 μL of each sample was injected in a mobile phase consisting of 60%:40% methanol:5 mM ammonium acetate at a flow rate of 0.5 mL/minute. The column used was a BDS hypersil, C18, 50×2.1 mm with a 5 μm particle size.
(§1) Each compound was tuned with a spray voltage of 3000 V and a capillary temperature of 300° C. and values for tube lens, CID and product ions were determined.
The peak area for each compound was measured in triplicate for the 0 and 30 minute samples and the average of each was reported. The percentage remaining after 30 minutes was calculated as the average peak area of the sample after 30 minutes divided by the average peak area at 0 minutes. The RSD was 10% or lower for each compound.

A further data set addresses T1, human 11β-HSD2 (Homo sapiens, UniProt P80365).
T1 construct: CHO cells stably transfected with the full-length gene coding for human 11β-HSD2 were used; expressed in transfected cells; host or cells: CHO (stably transfected)
T1 sequence (P80365 1-405): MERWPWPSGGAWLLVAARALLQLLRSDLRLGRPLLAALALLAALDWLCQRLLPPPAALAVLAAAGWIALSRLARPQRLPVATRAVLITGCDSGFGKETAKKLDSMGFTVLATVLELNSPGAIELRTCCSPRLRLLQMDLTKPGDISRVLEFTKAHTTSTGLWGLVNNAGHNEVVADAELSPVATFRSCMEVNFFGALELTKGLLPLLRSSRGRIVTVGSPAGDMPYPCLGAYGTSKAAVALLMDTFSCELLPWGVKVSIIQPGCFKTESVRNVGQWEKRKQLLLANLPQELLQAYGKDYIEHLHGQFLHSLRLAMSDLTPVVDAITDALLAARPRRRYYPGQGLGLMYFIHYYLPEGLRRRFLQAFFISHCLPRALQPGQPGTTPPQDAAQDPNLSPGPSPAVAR
Description: Cellular in vitro 11β-HSD2 enzyme inhibition assay (CHO cells). The class given is cell-based. The settings on record: CHO cells transfected with human 11β-HSD2. The method, then: For measurement of inhibition of 11β-HSD2, CHO cells stably transfected with the full-length gene coding for human 11β-HSD2 were used. Assays were carried out in 96-well microplates containing 1×10^5 cells/well. Controls and compounds were plated as above, so that the final DMSO concentration in each well was 1%. To initiate the assay, 90 μL of a solution of HAMS F-12 medium containing 1% glutamine, 1% penicillin and streptomycin, and 22 nM tritiated cortisol was added to each well of the assay plate. The plate was then incubated in 5% CO2, 95% O2 at 37° C. for 16 hours.
The assay solutions were transferred to glass tubes and […] added to each tube. Each tube was vortexed thoroughly and the upper layer containing the tritiated steroid transferred to a fresh glass tube. The solvent was evaporated by placing the tubes in a heating block at 65° C. under a stream of nitrogen gas. 20 μL ethanol was added to each of the dried samples and vortexed briefly. Each sample was applied to a silica TLC plate and the plate dried. The plate was placed vertically in a glass tank containing 92% chloroform: 8% ethanol and the solvent allowed to rise up the plate. The plate was dried, placed in an imaging cassette, and overlayed with a tritium imaging plate for 1-2 days. The amount of enzyme inhibition in each sample was determined by measuring the intensity of the substrate and product spots using a phospho-imager. IC50 values for inhibitors were determined as described above for 11β-HSD1.

The nature of another data set: Pharmacokinetics in rat. The class given is in vivo, male Sprague Dawley rats. The settings on record: male, Sprague Dawley, intravenous 1 mg/kg and oral 5 mg/kg; for bioavailability: blood, read-out: % F (% bioavailability); for clearance: plasma, read-out: Cl (plasma clearance). The procedure:
The pharmacokinetic parameters of certain compounds were determined following intravenous (1 mg/kg) and oral (5 mg/kg) administration to male Sprague Dawley rats. Dosing solution was prepared by mixing each compound with 2% DMSO, 38% PEG-400 and 60% (0.9%) NaCl. Solutions were passed through 0.2 μm filters prior to administration.
Following dosing and at appropriate time points, blood samples were taken from a lateral tail vein and transferred into a tube pre-treated with EDTA. Blood samples were analysed for parent compound by LCMS and the quantity of parent compound remaining determined. Non-compartmental analysis was applied to the data using WinNonlin™ software to determine the pharmacokinetic parameters for each compound.

The nature of data set [2]: Oral exposure and tissue distribution in rats. The settings on record: rat, oral 10 mg/kg; for Cmax: male, Sprague Dawley, plasma, read-out: Plasma Cmax (maximum plasma concentration). The data set is classed as in vivo, male Sprague Dawley rats. The method, then:
The circulating plasma levels and tissue distribution of certain compounds were determined following oral administration of compound (10 mg/kg) to male Sprague Dawley rats. Rats (n=3 per group) were culled at 1, 4 and 6 hours post dosing and trunk blood and tissues (liver, adipose and brain) excised. Blood samples at 30 minutes and 2 hours post dosing were taken by tail nick from the 4 hour and 6 hour rats respectively.
Compound was triple extracted from plasma (prepared from blood by a high speed centrifugation step) spiked with 1 μg of a standard compound using ethyl acetate. Extracts were dried under nitrogen and re-suspended in 60% methanol/40% ammonium acetate (5 mM).
A known weight of tissue was homogenized in 3 volumes Krebs buffer. Compound was triple extracted with ethyl acetate from the supernatant of a low speed spin spiked with 1 μg of a standard compound. Extracts were dried under nitrogen and re-suspended in 60% methanol/40% ammonium acetate (5 mM).
Samples from plasma and tissue were analyzed by TSQ Quantum Discovery Tandem Mass Spectrometer and Surveyor Liquid Chromatogram (Thermo, Hemel-Hempstead, UK). 10 μL of each sample was injected in a mobile phase consisting of 60%:40% methanol:5 mM ammonium acetate at a flow rate of 0.5 mL/minute. The column used was a BDS hypersil, C18, 50×2.1 mm with a 5 μm particle size.
as §1
The peak area for each compound and for the internal standard was determined and the concentration of compound per gram of tissue or mL of plasma was calculated by comparison of the peak area ratio to a standard curve.

As for `O=C(c1csc(-c2cn[nH]c2)c1)N1C2CCC1CC(O)(c1ncccn1)C2` (stereo not drawn) [XX-20, (3-Hydroxy-3-pyrimidin-2-yl-8-aza-bicyclo[3.2.1]oct-8-yl)-[5-(1H-pyrazol-4-yl)-thiophen-3-yl]-methanone], the “% Parent Remaining at 30 min” value in data set [1] is listed as “+++ (61-100% +++)”. At human 11β-HSD2, this molecule registered an IC50 of over 10 µM. Also, in “Pharmacokinetics in rat”, the bioavailability lay within 41 to 100% and the clearance is under 25 mL/min/kg. Moreover, in data set [2], the Cmax is over 1000 ng/mL and the “Liver Cmax (maximum liver concentration)” value is given as “+++ (>5001 +++)”.
As for `O=C(c1csc(-c2cn[nH]c2)c1)N1C2CCC1CC(O)(c1nccs1)C2` (stereo not drawn) [XX-29], the “% Parent Remaining at 30 min” value in data set [1] is on record as “+++ (61-100% +++)”. This molecule also registered a half-inhibitory concentration (IC50) against human 11β-HSD2 of over 10 µM. In addition, in the data set “Pharmacokinetics in rat”, the bioavailability lay in the range of 41 to 100% and the clearance was under 25 mL/min/kg. In data set [2], the Cmax was in the range of 501 to 1000 ng/mL and the “Liver Cmax (maximum liver concentration)” value is “++ (3001-5000 ++)”.
